Experimental data reported in ChEMBL document CHEMBL1134052, “A new C-nucleoside analogue of tiazofurin: synthesis and biological evaluation of 2-beta-D-ribofuranosylimidazole-4-carboxamide (imidazofurin)” (Bioorg Med Chem Lett, 2001).

How the values were obtained:
[1] = tested on: K562; experiment: Ability to inhibit the growth of human myelogenous leukemia K562 cells; type: functional, cell-based
[2] = tested on: K562; experiment: Ability to inhibit the growth of human myelogenous leukemia K562 cells at 100 uM; no growth; type: functional, cell-based

SMILES | IC50 [1] [µM] | Activity [2]
NC(=O)c1csc([C@@H]2O[C@H](CO)[C@@H](O)[C@H]2O)c1 | 4.6 | –
NC(=O)c1c[nH]c([C@@H]2O[C@H](CO)[C@@H](O)[C@H]2O)n1 | – | no growth
